{"source": "patent US20150342906A1", "about": "“Anti-sneeze and nose vestibule care - compositions, methods, and devices” (priority 2014, published 2015)", "test": "oral 10 mg cetirizine pill during allergic reaction", "format": "in vivo, human", "conditions": "person, 10 mg pill around noon", "procedure": "The irritants in degraded fall leaves and yard debris caused an overwhelming allergic reaction. They took a pill of 10 mg cetirizine around 12 o'clock noon time. […] They suffered a severe running nose and sneezes. They used the anti-sneeze sticks and cotton swabs described in previous examples frequently.", "data": [{"smiles": "O=C(O)COCCN1CCN(C(c2ccccc2)c2ccc(Cl)cc2)CC1", "note": "(stereo not shown) [cetirizine]", "values": [{"measurement": "effect of oral drug on allergic reaction, running nose and sneezes", "result": "did not take effect as expected"}]}]}
